In patent US10576088B2, “Compositions comprising finafloxacin and Tris” (MerLion Pharmaceuticals Pte. Ltd., priority 2014, dated 2020):
Values after ≈ are worked out from the molar mass of the structure shown.

Experiments:
[1] = Solubility of finafloxacin HCl in Tris, phosphate and pH-adjusted WfI (Example 1); format: physicochemical
Protocol: The solubility of finafloxacin, in form of its mono-hydrochloride salt, was tested at pH values between 7.3 and 9.0, using the following solutions: 0.01 M Tris: Water for injection 800 ml, Tris 1.21 g, sodium chloride 7.5 g, water for injection ad 1000 ml; pH was adjusted with HCl/NaOH. 0.025 M Phosphate: Water for injection 800 ml, sodium dihydrogen phosphate 1.950 g, disodium hydrogen phosphate 2.225 g, sodium chloride 7.5 g, water for injection ad 1000 ml; pH was adjusted with HCl/NaOH. WfI: Water for injection 900 ml, sodium chloride 7.5 g, water for injection ad 1000 ml; pH was adjusted with HCl/NaOH.

[2] = Solubility of finafloxacin HCl in different concentrations of Tris solutions (Example 2); format: physicochemical
Protocol: 0.25 M Tris: Water for injection 800 ml, Tris 30.3 g, sodium chloride 7.5 g, water for injection ad 1000 ml; pH was adjusted with HCl/NaOH. 0.17 M Tris: Water for injection 800 ml, Tris 20.0 g, sodium chloride 7.5 g, water for injection ad 1000 ml; pH was adjusted with HCl/NaOH. 0.08 M Tris: Water for injection 800 ml, Tris 10.0 g, sodium chloride 7.5 g, water for injection ad 1000 ml; pH was adjusted with HCl/NaOH. […] In contrast to example 1 the pH was not re-adjusted after the stepwise addition of finafloxacin.

[3] = Stability of finafloxacin composition comprising Tris (Example 3); format: physicochemical; conditions: solution of 3.20 g/l finafloxacin, 7.80 g/l NaCl, 1.21 g/l Tris, pH 8.25, water for injection
Excerpt: The following composition was used to test the stability: [table]

E. coli 25922 = experiment: In vitro susceptibility test (MIC), finafloxacin composition with Tris; format: cell-based; conditions: Escherichia coli, composition at pH 8.0 containing 0.05 M Tris, read-out: minimal inhibitory concentration (MIC)
Protocol: (§1) The efficacy of finafloxacin compositions including Tris between pH 8.0-8.5 was examined and determined as follows:
(§2) 4.1 Bacteria were incubated in a finafloxacin composition at pH 8.0 containing 0.05 M Tris and the minimal inhibitory concentration (MIC) of finafloxacin, defined as the minimal finafloxacin concentration that inhibited the growth of the bacterium, was determined using a standard in vitro susceptibility test.

S. aureus 29213 = experiment: as above; format: cell-based; conditions: Staphylococcus aureus, composition at pH 8.0 containing 0.05 M Tris, read-out: minimal inhibitory concentration (MIC)
Protocol: as §1, §2

E. coli ATCC 25922 = experiment: Mouse intraperitoneal infection model, bacterial burden; format: in vivo; conditions: mice, composition with 0.01 M Tris, doses 4 and 12 hours post infection, burden 24 hours post infection
Protocol: 4.2 Mice were infected with 3.9×10^5 E. coli ATCC 25922 suspended in 1% porcine mucin administered by a 0.5 ml intraperitoneal injection. Antibacterial treatment with a finafloxacin composition comprising 0.01 M Tris was initiated 4 hours post infection with a second dose 12 hours post infection. The bacterial burden in the peritoneal fluid and blood culture was determined 24 hours post infection. Finafloxacin was effective at all doses with 1 mg/kg causing a reduction in burden of 3.1 log 10 cfu/g, finafloxacin administered at 3, 10 and 30 mg/kg were increasingly effective causing reductions of 4.4, 5.0 and 6.5 log 10 cfu/g, respectively.

pathogen in the urine = experiment: Microbiological cure in patients with complicated urinary tract infections and pyelonephritis; format: in vivo, human; conditions: intravenous 800 mg once daily, composition with 0.01 M Tris, 17 days after start of treatment, cure = pathogen in urine ≤10^3 cfu/ml
Protocol: 4.3 Patients with complicated urinary tract infections and pyelonephritis were treated with an intravenous dose of 800 mg Finafloxacin once daily. 17 days after the start of the treatment the microbiological cure results were determined. Microbiological cure is defined as the reduction of the concentration of the pathogen in the urine to a titer of ≤10^3 cfu/ml. The finafloxacin composition comprising 0.01 M Tris caused an efficient eradication of the pathogens. The microbiological cure rate was 83%.

[4] = 2-week intravenous toxicological appraisal in rats; format: in vivo; conditions: 2 weeks, 60, 120 and 200 mg/kg/day, in 0.01 M Tris, 0.75% (w/v) sodium chloride, pH 8.5
Excerpt: The test article was formulated in 0.01 M Tris containing sodium chloride to 0.75% (w/v), adjusted in water for injection to pH 8.5.

Cl.N#Cc1c(N2C[C@@H]3NCCO[C@H]3C2)c(F)cc2c(=O)c(C(=O)O)cn(C3CC3)c12 [Finafloxacin HCl]
solubility ([1]; 0.01 M Tris, pH 7.5, pH re-adjusted): 6000 µg/mL
solubility ([1]; 0.01 M Tris, pH 8.0, pH re-adjusted): 15000 µg/mL
solubility ([1]; 0.01 M Tris, pH 8.5, pH re-adjusted): >28000 µg/mL
solubility ([1]; 0.01 M Tris, pH 9.0, pH re-adjusted): >28000 µg/mL
solubility ([1]; 0.025 M Phosphate, pH 7.5, pH re-adjusted): 2000 µg/mL
solubility ([1]; 0.025 M Phosphate, pH 8.0, pH re-adjusted): 4000 µg/mL
solubility ([1]; 0.025 M Phosphate, pH 8.5, pH re-adjusted): 6000 µg/mL
solubility ([1]; 0.025 M Phosphate, pH 9.0, pH re-adjusted): 8000 µg/mL
solubility ([1]; pH-adjusted WfI, pH 7.5): 2000 µg/mL
solubility ([1]; pH-adjusted WfI, pH 8.0): 4000 µg/mL
solubility ([1]; pH-adjusted WfI, pH 8.5): 6000 µg/mL
solubility ([1]; pH-adjusted WfI, pH 9.0): 6000 µg/mL
solubility ([2]; 0.08 M Tris, pH 7.8, pH not re-adjusted): 4000 µg/mL
solubility ([2]; 0.08 M Tris, pH 8.2, pH not re-adjusted): 6000 µg/mL
solubility ([2]; 0.08 M Tris, pH 8.6, pH not re-adjusted): 9000 µg/mL
solubility ([2]; 0.08 M Tris, pH 9.0, pH not re-adjusted): 10000 µg/mL
solubility ([2]; 0.17 M Tris, pH 7.4, pH not re-adjusted): 2000 µg/mL
solubility ([2]; 0.17 M Tris, pH 7.8, pH not re-adjusted): 6000 µg/mL
solubility ([2]; 0.17 M Tris, pH 8.2, pH not re-adjusted): 10000 µg/mL
solubility ([2]; 0.17 M Tris, pH 8.6, pH not re-adjusted): 19000 µg/mL
solubility ([2]; 0.17 M Tris, pH 9.0, pH not re-adjusted): 23000 µg/mL
solubility ([2]; 0.25 M Tris, pH 7.4, pH not re-adjusted): 2000 µg/mL
solubility ([2]; 0.25 M Tris, pH 7.8, pH not re-adjusted): 8000 µg/mL
solubility ([2]; 0.25 M Tris, pH 8.2, pH not re-adjusted): 15000 µg/mL
solubility ([2]; 0.25 M Tris, pH 8.6, pH not re-adjusted): 24000 µg/mL
solubility ([2]; 0.25 M Tris, pH 9.0, pH not re-adjusted): 28000 µg/mL

N#Cc1c(N2C[C@@H]3NCCO[C@H]3C2)c(F)cc2c(=O)c(C(=O)O)cn(C3CC3)c12 [Finafloxacin, (−)-8-cyano-1-cyclopropyl-6-fluoro-7-[(4aS,7aS)-hexahydropyrrolo[3,4-b]-1,4-oxazin-6(2H)-yl]-4-oxo-1,4-dihydroquinoline-3-carboxylic acid]
increase in solubility ([1]; 0.01 M Tris versus WfI and phosphate buffer): 3-4 fold
long term stability [3]: at least 24 months
MIC (E. coli 25922): 0.25 µg/mL (≈ 0.628 µM)
MIC (S. aureus 29213): 0.5 µg/mL (≈ 1.26 µM)
reduction in burden (E. coli ATCC 25922; 1 mg/kg): 3.1 log 10 cfu/g
reduction in burden (E. coli ATCC 25922; 3 mg/kg): 4.4 log 10 cfu/g
reduction in burden (E. coli ATCC 25922; 10 mg/kg): 5.0 log 10 cfu/g
reduction in burden (E. coli ATCC 25922; 30 mg/kg): 6.5 log 10 cfu/g
microbiological cure rate (pathogen in the urine): 83%
tolerability [4]: generally well tolerated
